Results reported in ChEMBL document CHEMBL1155271, “Synthesis, crystal structures and antibacterial activity studies of aza-derivatives of phytoalexin from cotton plant--gossypol” (2009).
≈ marks a conversion by molar mass, not a printed value. Calls of active or inactive are those of the source. No cut-off for these calls is given here.

How the values were obtained:
Type in all cases: functional
[1] = system: Staphylococcus aureus; assay: Antimicrobial activity against Methicillin susceptible Staphylococcus aureus 207/7 by twofold dilution technique
[2] = system: Staphylococcus aureus; assay: Antimicrobial activity against methicillin-resistant Staphylococcus aureus 136/6 by twofold dilution technique
[3] = system: Staphylococcus aureus; assay: Antimicrobial activity against methicillin-resistant Staphylococcus aureus 217/7 by twofold dilution technique
[4] = system: Staphylococcus aureus; assay: Antimicrobial activity against Methicillin susceptible Staphylococcus aureus 206/7 by twofold dilution technique
[5] = system: Staphylococcus aureus; assay: Antimicrobial activity against Methicillin susceptible Staphylococcus aureus 243/7 by twofold dilution technique
[6] = system: Staphylococcus aureus; assay: Antimicrobial activity against Methicillin susceptible Staphylococcus aureus 237/7 by twofold dilution technique
[7] = system: Staphylococcus aureus; assay: Antimicrobial activity against Methicillin susceptible Staphylococcus aureus 213/7 by twofold dilution technique
[8] = system: Staphylococcus epidermidis; assay: Antimicrobial activity against Staphylococcus epidermidis ATCC 12228 by twofold dilution technique
[9] = system: Staphylococcus aureus; assay: Antimicrobial activity against Staphylococcus aureus ATCC 6538 at 400 ug after 18 hrs by disk diffusion method; details: ATCC 6538, 18 h, read-out: DIZ
[10] = system: Staphylococcus aureus; assay: Antimicrobial activity against methicillin-resistant Staphylococcus aureus 141/6 by twofold dilution technique
[11] = system: Staphylococcus aureus; assay: Antimicrobial activity against methicillin-resistant Staphylococcus aureus 218/7 by twofold dilution technique
[12] = system: Enterococcus hirae; assay: Antimicrobial activity against Enterococcus hirae ATCC 10541 at 400 ug after 18 hrs by disk diffusion method
[13] = system: Staphylococcus aureus; assay: Antimicrobial activity against methicillin-resistant Staphylococcus aureus 236/7 by twofold dilution technique
[14] = system: Staphylococcus aureus; assay: Antimicrobial activity against Staphylococcus aureus ATCC 29213 after 18 hrs by twofold dilution technique; details: ATCC 29213, 18 h
[15] = system: Staphylococcus aureus; assay: Antimicrobial activity against methicillin-resistant Staphylococcus aureus 200/7 by twofold dilution technique
[16] = system: Staphylococcus aureus; assay: Antimicrobial activity against Methicillin susceptible Staphylococcus aureus 238/7 by twofold dilution technique
[17] = system: Enterococcus hirae; assay: Antimicrobial activity against Enterococcus hirae ATCC 10541 after 18 hrs by twofold dilution technique; details: ATCC 10541, 18 h
[18] = system: Staphylococcus aureus; assay: Antimicrobial activity against methicillin-resistant Staphylococcus aureus 144/6 by twofold dilution technique
[19] = system: Micrococcus luteus; assay: Antimicrobial activity against Micrococcus luteus ATCC 10240 at 400 ug after 18 hrs by disk diffusion method; details: ATCC 10240, 18 h, read-out: DIZ
[20] = system: Staphylococcus aureus; assay: Antimicrobial activity against methicillin-resistant Staphylococcus aureus 146/6 by twofold dilution technique
[21] = system: Staphylococcus aureus; assay: Antimicrobial activity against Methicillin susceptible Staphylococcus aureus 239/7 by twofold dilution technique
[22] = system: Bacillus subtilis; assay: Antimicrobial activity against Bacillus subtilis ATCC 6633 after 18 hrs by twofold dilution technique; details: ATCC 6633, 18 h
[23] = system: Micrococcus luteus; assay: Antimicrobial activity against Micrococcus luteus ATCC 10240 by twofold dilution technique
[24] = system: Staphylococcus aureus; assay: Antimicrobial activity against Staphylococcus aureus ATCC 6538 after 18 hrs by twofold dilution technique; details: ATCC 6538, 18 h
[25] = system: Staphylococcus aureus; assay: Antimicrobial activity against Methicillin susceptible Staphylococcus aureus 208/7 by twofold dilution technique
[26] = system: Staphylococcus aureus; assay: Antimicrobial activity against Methicillin susceptible Staphylococcus aureus 212/7 by twofold dilution technique
[27] = system: Staphylococcus aureus; assay: Antimicrobial activity against Staphylococcus aureus ATCC 29213 at 400 ug after 18 hrs by disk diffusion method; details: ATCC 29213, 18 h, read-out: DIZ
[28] = system: Bacillus cereus; assay: Antimicrobial activity against Bacillus cereus ATCC 11778 after 18 hrs by twofold dilution technique; details: ATCC 11778, 18 h
[29] = system: Staphylococcus epidermidis; assay: Antimicrobial activity against Staphylococcus epidermidis ATCC 12228 at 400 ug after 18 hrs by disk diffusion method; details: ATCC 12228, 18 h, read-out: DIZ
[30] = system: Staphylococcus aureus; assay: Antimicrobial activity against Staphylococcus aureus ATCC 25923 after 18 hrs by twofold dilution technique; details: ATCC 25923, 18 h
[31] = system: Micrococcus luteus; assay: Antimicrobial activity against Micrococcus luteus ATCC 9341 at 400 ug after 18 hrs by disk diffusion method
[32] = system: Staphylococcus aureus; assay: Antimicrobial activity against methicillin-resistant Staphylococcus aureus 140/6 by twofold dilution technique
[33] = system: Staphylococcus aureus; assay: Antimicrobial activity against Staphylococcus aureus NCTC 4163 after 18 hrs by twofold dilution technique; details: NCTC 4163, 18 h
[34] = system: Staphylococcus aureus; assay: Antimicrobial activity against methicillin-resistant Staphylococcus aureus 143/6 by twofold dilution technique
[35] = system: Staphylococcus aureus; assay: Antimicrobial activity against Staphylococcus aureus ATCC 25923 at 400 ug after 18 hrs by disk diffusion method; details: ATCC 25923, 18 h, read-out: DIZ
[36] = system: Micrococcus luteus; assay: Antimicrobial activity against Micrococcus luteus ATCC 9341 after 18 hrs by twofold dilution technique; details: ATCC 9341, 18 h
[37] = system: Bacillus subtilis; assay: Antimicrobial activity against Bacillus subtilis ATCC 6633 at 400 ug after 18 hrs by disk diffusion method; details: ATCC 6633, 18 h, read-out: DIZ
[38] = system: Staphylococcus aureus; assay: Antimicrobial activity against Methicillin susceptible Staphylococcus aureus 242/7 by twofold dilution technique
[39] = system: Bacillus cereus; assay: Antimicrobial activity against Bacillus cereus ATCC 11778 at 400 ug after 18 hrs by disk diffusion method; details: ATCC 11778, 18 h, read-out: DIZ
[40] = system: Staphylococcus aureus; assay: Antimicrobial activity against Staphylococcus aureus NCTC 4163 at 400 ug after 18 hrs by disk diffusion method; details: NCTC 4163, 18 h, read-out: DIZ

Row | SMILES | MIC [1] [µg/mL] | MIC [2] [µg/mL] | MIC [3] [µg/mL] | MIC [4] [µg/mL] | MIC [5] [µg/mL] | MIC [6] [µg/mL] | MIC [7] [µg/mL] | MIC [8] [µg/mL] | zone of inhibition at 400 µg/disc [9] [mm] | MIC [10] [µg/mL] | MIC [11] [µg/mL] | MIC [13] [µg/mL] | MIC [14] [µg/mL] | MIC [15] [µg/mL] | MIC [16] [µg/mL] | MIC [17] [µg/mL] | MIC [18] [µg/mL] | zone of inhibition at 400 µg/disc [19] [mm] | MIC [20] [µg/mL] | MIC [21] [µg/mL] | also measured
1 | Cc1cc2c(c(O)c1-c1c(C)cc3c(c1O)/C(=C/NCC1COCCOCCOCCOCCOCCO1)C(=O)C(O)=C3C(C)C)/C(=C/NCC1COCCOCCOCCOCCOCCO1)C(=O)C(O)=C2C(C)C (centres undefined) | 200 (≈ 187 µM) | 100 (≈ 93.5 µM) | 200 (≈ 187 µM) | 100 (≈ 93.5 µM) | 200 (≈ 187 µM) | 100 (≈ 93.5 µM) | 100 (≈ 93.5 µM) | > 400 | 11 | 100 (≈ 93.5 µM) | 100 (≈ 93.5 µM) | 100 (≈ 93.5 µM) | 100 (≈ 93.5 µM) | 200 (≈ 187 µM) | 100 (≈ 93.5 µM) | 100 (≈ 93.5 µM) | 100 (≈ 93.5 µM) | 14 | 100 (≈ 93.5 µM) | 100 (≈ 93.5 µM) | diameter of the inhibition zone (DIZ) [12]: inactive; MIC [22]: 200 µg/mL (≈ 187 µM); MIC [23]: 100 µg/mL (≈ 93.5 µM); MIC [24]: 100 µg/mL (≈ 93.5 µM); MIC [25]: 200 µg/mL (≈ 187 µM); MIC [26]: 100 µg/mL (≈ 93.5 µM); zone of inhibition at 400 µg/disc [27]: 11 mm; MIC [28]: 100 µg/mL (≈ 93.5 µM); zone of inhibition at 400 µg/disc [29]: 12 mm; MIC [30]: 100 µg/mL (≈ 93.5 µM); diameter of the inhibition zone (DIZ) [31]: inactive; MIC [32]: 100 µg/mL (≈ 93.5 µM); MIC [33]: 100 µg/mL (≈ 93.5 µM); MIC [34]: 100 µg/mL (≈ 93.5 µM); zone of inhibition at 400 µg/disc [35]: 11 mm; MIC [36]: 100 µg/mL (≈ 93.5 µM); zone of inhibition at 400 µg/disc [37]: 11 mm; MIC [38]: 100 µg/mL (≈ 93.5 µM); zone of inhibition at 400 µg/disc [39]: 11 mm
2 | Cc1cc2c(c(O)c1-c1c(C)cc3c(c1O)/C(=C/NCCC(=O)N[C@@H](Cc1c[nH]cn1)C(=O)O)C(=O)C(O)=C3C(C)C)/C(=C/NCCC(=O)N[C@@H](Cc1c[nH]cn1)C(=O)O)C(=O)C(O)=C2C(C)C | 100 (≈ 107 µM) | 25 (≈ 26.7 µM) | 100 (≈ 107 µM) | 50 (≈ 53.5 µM) | 100 (≈ 107 µM) | 50 (≈ 53.5 µM) | 100 (≈ 107 µM) | 200 (≈ 214 µM) | 15 | 100 (≈ 107 µM) | 100 (≈ 107 µM) | 50 (≈ 53.5 µM) | 25 (≈ 26.7 µM) | 100 (≈ 107 µM) | 50 (≈ 53.5 µM) | 50 (≈ 53.5 µM) | 100 (≈ 107 µM) | 16 | 50 (≈ 53.5 µM) | 100 (≈ 107 µM) | zone of inhibition at 400 µg/disc ([12]; ATCC 10541, 18 h, read-out: DIZ): 12 mm; zone of inhibition at 400 µg/disc [40]: 15 mm; MIC [22]: 200 µg/mL (≈ 214 µM); MIC [23]: 50 µg/mL (≈ 53.5 µM); MIC [24]: 25 µg/mL (≈ 26.7 µM); MIC [25]: 100 µg/mL (≈ 107 µM); MIC [26]: 100 µg/mL (≈ 107 µM); zone of inhibition at 400 µg/disc [27]: 13 mm; MIC [28]: 50 µg/mL (≈ 53.5 µM); zone of inhibition at 400 µg/disc [29]: 14 mm; MIC [30]: 50 µg/mL (≈ 53.5 µM); diameter of the inhibition zone (DIZ) [31]: inactive; MIC [32]: 100 µg/mL (≈ 107 µM); MIC [33]: 50 µg/mL (≈ 53.5 µM); MIC [34]: 100 µg/mL (≈ 107 µM); zone of inhibition at 400 µg/disc [35]: 15 mm; MIC [36]: 50 µg/mL (≈ 53.5 µM); zone of inhibition at 400 µg/disc [37]: 13 mm; MIC [38]: 25 µg/mL (≈ 26.7 µM); zone of inhibition at 400 µg/disc [39]: 14 mm
